Laboratory results from patent US10189842B2 (Agency for Science, Technology and Research, priority 2013, dated 2019).

The molecules below were run on HEK293-STF3A cells (assay: STF3A assay (luciferase reporter)). Details: Homo sapiens, 24 h, 1 day of treatment.
Type: cell-based, Human
Source text: HEK293-STF cell line was modified from Human embryonic kidney cell line HEK293 transfected with the STF reporter. HEK293-STF3A cell line was further modified from HEK293-STF cell line to express Wnt3A. This cell line was used to identify compounds that regulate either early or late signaling components of the Wnt pathway. These two cell lines were obtained from David Virshup's laboratory, Duke-NUS. L-Wnt3A (ATCC, #CRL-2647) cell line was used for providing Wnt3A conditioned media. The three cell lines were grown in DMEM with 10% FBS incubated in 37° C. with 5% CO2.
2×10^4 HEK293-STF3A cells in 75 μl culture media were seeded in each well of white 96 well plates (Greiner #655098) and incubated overnight at 37° C. 25 μl serially diluted compound was added to the cells to give final concentration of 50 μM to 1.5 nM. After 1 day of treatment, 100 μl of Steady-Glo Luciferase Assay reagent (#E2520, Promega) was added to each well and incubated for 10 minutes at room temperature. Luminescence was measured using Tecan Safire2 plate reader.
`Cc1cc2n(n1)CCCN2C(=O)CCC(=O)Nc1ccc(-c2ccccc2N)cc1` [Compound 69, N-(2′-amino-[1,1′-biphenyl]-4-yl)-4-(2-methyl-6,7-dihydropyrazolo[1,5-a]pyrimidin-4(5H)-yl)-4-oxobutanamide] gave an IC50 of less than 1000 nM.
`Cc1cc2n(n1)CCCN2C(=O)CCC(=O)Nc1ccc(-c2cccc(N(C)C)c2)cc1` [Compound 72, N-(3′-(dimethylamino)-[1,1′-biphenyl]-4-yl)-4-(2-methyl-6,7-dihydropyrazolo[1,5-a]pyrimidin-4(5H)-yl)-4-oxobutanamide] gave an IC50 greater than 10000 nM.
For `Cc1cccc(-c2cnc(NC(=O)CCC(=O)N3CCCn4nc(C)cc43)cn2)c1` [Compound 126, 4-(2-methyl-6,7-dihydropyrazolo[1,5-a]pyrimidin-4(5H)-yl)-4-oxo-N-(5-(m-tolyl)pyrazin-2-yl)butanamide], the IC50 was less than 100 nM.
In the case of `Cc1cc2n(n1)CCCN2C(=O)CCC(=O)Nc1cnc(-c2cccnc2)c(F)c1` [Compound 111, N-(3-fluoro-2,3′-bipyridin-5-yl)-4-(2-methyl-6,7-dihydropyrazolo[1,5-a]pyrimidin-4(5H)-yl)-4-oxobutanamide], the IC50 is reported as less than 100 nM.
For `Cc1cncc(-c2ccc(NC(=O)C(C)CC(=O)N3CCCn4nc(C)cc43)cn2)c1` (centres unmarked) [Compound 150, 2-methyl-4-(2-methyl-6,7-dihydropyrazolo[1,5-a]pyrimidin-4(5H)-yl)-N-(5′-methyl-[2,3′-bipyridin]-5-yl)-4-oxobutanamide], the IC50 was less than 100 nM.
For `COc1cccc(-c2ccc(NC(=O)CCC(=O)N3CCCn4nc(C)cc43)cc2)c1` [Compound 62, N-(3′-methoxy-[1,1′-biphenyl]-4-yl)-4-(2-methyl-6,7-dihydropyrazolo[1,5-a]pyrimidin-4(5H)-yl)-4-oxobutanamide], the IC50 was less than 100 nM.
In the case of `Cc1cc2n(n1)CCCN2C(=O)CCC(=O)Nc1ccc(-c2ccncc2)cc1` [Compound 36, 4-(2-methyl-6,7-dihydropyrazolo[1,5-a]pyrimidin-4(5H)-yl)-4-oxo-N-(4-(pyridin-4-yl)phenyl)butanamide], the IC50 is reported as less than 1000 nM.
`Cc1cc2n(n1)CC(C)CN2C(=O)CCC(=O)Nc1cc(F)c(-c2cccnc2)cn1` (centres unmarked) [Compound 165, 4-(2,6-dimethyl-6,7-dihydropyrazolo[1,5-a]pyrimidin-4(5H)-yl)-N-(4-fluoro-[3,3′-bipyridin]-6-yl)-4-oxobutanamide] gave an IC50 of less than 100 nM.
Work on `Cc1cc2n(n1)CCCN2C(=O)CCC(=O)Nc1cc(-c2cccc(C(F)(F)F)c2)no1` [Compound 13, 4-{2-methyl-5H,6H,7H-pyrazolo[1,5-a]pyrimidin-4-yl}-4-oxo-N-{3-[3-(trifluoromethyl)phenyl]-1,2-oxazol-5-yl}butanamide] yielded an IC50 greater than 10000 nM.
Work on `Cc1cc2n(n1)CCCN2C(=O)CCC(=O)Nc1ccc(-c2cc(F)ccn2)cn1` [Compound 95, N-(4-fluoro-2,3′-bipyridin-6′-yl)-4-(2-methyl-6,7-dihydropyrazolo[1,5-a]pyrimidin-4(5H)-yl)-4-oxobutanamide] yielded an IC50 of less than 100 nM.
`Cc1cc2n(n1)CCCN2C(=O)CC(C)C(=O)Nc1ccc(-c2ccccc2)nn1` (centres unmarked) [Compound 146, 2-methyl-4-(2-methyl-6,7-dihydropyrazolo[1,5-a]pyrimidin-4(5H)-yl)-4-oxo-N-(6-phenylpyridazin-3-yl)butanamide] gave an IC50 of less than 100 nM.
`Cc1cncc(-c2ncc(NC(=O)CCC(=O)N3CCCn4nc(C)cc43)cc2F)c1` [Compound 158, N-(3-fluoro-5′-methyl-[2,3′-bipyridin]-5-yl)-4-(2-methyl-6,7-dihydropyrazolo[1,5-a]pyrimidin-4(5H)-yl)-4-oxobutanamide] gave an IC50 of less than 100 nM.
Molecule `Cc1cc2n(n1)CCCN2C(=O)CCC(=O)Nc1ccc(C2CCN(C)CC2)cc1` [Compound 82, 4-(2-methyl-6,7-dihydropyrazolo[1,5-a]pyrimidin-4(5H)-yl)-N-(4-(1-methylpiperidin-4-yl)phenyl)-4-oxobutanamide] has an IC50 greater than 10000 nM.
`Cc1cc2n(n1)CCCN2C(=O)CC(C)C(=O)Nc1ccc(-c2cccnc2)cn1` (centres unmarked) [Compound 147, N-([3,3′-bipyridin]-6-yl)-2-methyl-4-(2-methyl-6,7-dihydropyrazolo[1,5-a]pyrimidin-4(5H)-yl)-4-oxobutanamide] showed an IC50 of less than 100 nM.
